From ChEMBL document CHEMBL1124186, “Synthesis and evaluation of tylosin-related macrolides modified at the aldehyde function: a new series of orally effective antibiotics” (1988)
≈ marks a conversion by molar mass, not a printed value.

Key:
Streptococcus pyogenes [1] = experiment: In vivo effective dose against experimental infections in rodent caused by Streptococcus pyogenes C203 when administered orally; type: functional; conditions: po
Streptococcus pyogenes [2] = experiment: In vitro antimicrobial activity against Streptococcus pyogenes C203; type: functional
Haemophilus influenzae = experiment: In vitro antimicrobial activity against Haemophilus influenzae.; type: functional
Streptococcus pyogenes [3] = experiment: In vivo effective dose against experimental infections in rodent caused by Streptococcus pyogenes C203 when administered sc; type: functional
Streptococcus pneumoniae = experiment: In vitro antimicrobial activity against Streptococcus pneumoniae; type: functional
Staphylococcus aureus = experiment: In vitro antimicrobial activity against Staphylococcus aureus X1; type: functional
Enterococcus faecium = experiment: In vitro antimicrobial activity against Streptococcus faecium X66; type: functional, streptococcus fae-cium
[4] = system: Staphylococcus epidermidis; experiment: In vitro antimicrobial activity against Staphylococcus epidermidis EPI1; type: functional

| Compound | ED50 (Streptococcus pyogenes [1]) [mg/kg] | MIC (Streptococcus pyogenes [2]) [µg/mL] | MIC (Haemophilus influenzae) [µg/mL] | ED50 (Streptococcus pyogenes [3]) [mg/kg] | MIC (Streptococcus pneumoniae) [µg/mL] | MIC (Staphylococcus aureus) [µg/mL] | MIC (Enterococcus faecium) [µg/mL] | MIC [4] [µg/mL] |
| --- | --- | --- | --- | --- | --- | --- | --- | --- |
| CC[C@H]1OC(=O)C[C@@H](O)[C@H](C)[C@@H](O[C@@H]2O[C@H](C)[C@@H](O)[C@H](N(C)C)[C@H]2O)[C@@H](CCO)C[C@@H](C)C(=O)/C=C/C(C)=C/[C@@H]1CO[C@@H]1O[C@H](C)[C@@H](O)[C@@H](OC)[C@H]1OC | > 100 | 4 (≈ 5.17 µM) | 32 (≈ 41.3 µM) | 2.1 | 4 (≈ 5.17 µM) | 2 (≈ 2.58 µM) | 32 (≈ 41.3 µM) | 2 (≈ 2.58 µM) |
| CC[C@H]1OC(=O)C[C@@H](O)[C@H](C)[C@@H](O[C@@H]2O[C@H](C)[C@@H](O)[C@H](N(C)C)[C@H]2O)[C@@H](CCI)C[C@@H](C)C(=O)/C=C/C(C)=C/[C@@H]1CO[C@@H]1O[C@H](C)[C@@H](O)[C@@H](OC)[C@H]1OC | 19 | 0.5 (≈ 0.566 µM) | 32 (≈ 36.2 µM) | 4.3 | 4 (≈ 4.53 µM) | 0.5 (≈ 0.566 µM) | 16 (≈ 18.1 µM) | 0.25 (≈ 0.283 µM) |
| CC[C@H]1OC(=O)C[C@@H](O)[C@H](C)[C@@H](O[C@@H]2O[C@H](C)[C@@H](O)[C@H](N(C)C)[C@H]2O)[C@@H](CCOc2ccccc2)C[C@@H](C)C(=O)/C=C/C(C)=C/[C@@H]1CO[C@@H]1O[C@H](C)[C@@H](O)[C@@H](O)[C@H]1OC | 50 | 0.25 (≈ 0.299 µM) | 32 (≈ 38.3 µM) | 3.2 | 1 (≈ 1.2 µM) | 0.25 (≈ 0.299 µM) | 4 (≈ 4.78 µM) | 0.25 (≈ 0.299 µM) |
| CC[C@H]1OC(=O)C[C@@H](O)[C@H](C)[C@@H](O[C@@H]2O[C@H](C)[C@@H](O[C@H]3C[C@@](C)(O)[C@@H](O)[C@H](C)O3)[C@H](N(C)C)[C@H]2O)[C@@H](CCN=[N+]=[N-])C[C@@H](C)C(=O)/C=C/C(C)=C/[C@@H]1CO[C@@H]1O[C@H](C)[C@@H](O)[C@@H](OC)[C@H]1OC |  | 2 (≈ 2.12 µM) | > 128 | 6.3 | 32 (≈ 33.9 µM) | 2 (≈ 2.12 µM) | 128 (≈ 136 µM) | 1 (≈ 1.06 µM) |
| CC[C@H]1OC(=O)C[C@@H](O)[C@H](C)[C@@H](O[C@@H]2O[C@H](C)[C@@H](O)[C@H](N(C)C)[C@H]2O)[C@@H](CCN2CCCCCCC2)C[C@@H](C)C(=O)/C=C/C(C)=C/[C@@H]1CO[C@@H]1O[C@H](C)[C@@H](O)[C@@H](O)[C@H]1OC | 100 | 0.5 (≈ 0.585 µM) | 32 (≈ 37.4 µM) | 1.8 | 0.5 (≈ 0.585 µM) | 1 (≈ 1.17 µM) | 16 (≈ 18.7 µM) | 1 (≈ 1.17 µM) |
| CC[C@H]1OC(=O)C[C@@H](O)[C@H](C)[C@@H](O[C@@H]2O[C@H](C)[C@@H](O)[C@H](N(C)C)[C@H]2O)[C@@H](CCOc2cccnc2)C[C@@H](C)C(=O)/C=C/C(C)=C/[C@@H]1CO[C@@H]1O[C@H](C)[C@@H](O)[C@@H](OC)[C@H]1OC | 50 | 2 (≈ 2.35 µM) | 16 (≈ 18.8 µM) | 3.9 | 2 (≈ 2.35 µM) | 0.5 (≈ 0.588 µM) | 16 (≈ 18.8 µM) | 0.5 (≈ 0.588 µM) |
| CC[C@H]1OC(=O)C[C@@H](O)[C@H](C)[C@@H](O[C@@H]2O[C@H](C)[C@@H](O)[C@H](N(C)C)[C@H]2O)[C@@H](CCOC(C(F)(F)F)C(F)(F)F)C[C@@H](C)C(=O)/C=C/C(C)=C/[C@@H]1CO[C@@H]1O[C@H](C)[C@@H](O)[C@@H](OC)[C@H]1OC |  | 0.5 (≈ 0.541 µM) | 64 (≈ 69.3 µM) | > 10 | 4 (≈ 4.33 µM) | 0.5 (≈ 0.541 µM) | 32 (≈ 34.6 µM) | 0.5 (≈ 0.541 µM) |
| CC[C@H]1OC(=O)C[C@@H](O)[C@H](C)[C@@H](O[C@@H]2O[C@H](C)[C@@H](O)[C@H](N(C)C)[C@H]2O)[C@@H](CCOc2ccc(CO)cc2)C[C@@H](C)C(=O)/C=C/C(C)=C/[C@@H]1CO[C@@H]1O[C@H](C)[C@@H](O)[C@@H](OC)[C@H]1OC | 44 | 0.5 (≈ 0.568 µM) | 64 (≈ 72.7 µM) | 5 | 2 (≈ 2.27 µM) | 0.5 (≈ 0.568 µM) | 16 (≈ 18.2 µM) | 0.5 (≈ 0.568 µM) |
| CC[C@H]1OC(=O)C[C@@H](O)[C@H](C)[C@@H](O[C@@H]2O[C@H](C)[C@@H](O)[C@H](N(C)C)[C@H]2O)[C@@H](CCNCCc2ccccc2)C[C@@H](C)C(=O)/C=C/C(C)=C/[C@@H]1CO | > 100 | 2 (≈ 2.85 µM) | 8 (≈ 11.4 µM) | 7.2 | 1 (≈ 1.42 µM) | 4 (≈ 5.69 µM) | 8 (≈ 11.4 µM) | 4 (≈ 5.69 µM) |
| CC[C@H]1OC(=O)C[C@@H](O)[C@H](C)[C@@H](O[C@@H]2O[C@H](C)[C@@H](O)[C@H](N(C)C)[C@H]2O)[C@@H](CCOS(=O)c2ccccc2)C[C@@H](C)C(=O)/C=C/C(C)=C/[C@@H]1CO[C@@H]1O[C@H](C)[C@@H](O)[C@@H](OC)[C@H]1OC (stereo partly drawn) | 45 | 0.25 (≈ 0.278 µM) | 8 (≈ 8.91 µM) | 5 |  | 0.25 (≈ 0.278 µM) | 4 (≈ 4.45 µM) | 0.25 (≈ 0.278 µM) |
| CC[C@H]1OC(=O)C[C@@H](O)[C@H](C)[C@@H](O[C@@H]2O[C@H](C)[C@@H](O)[C@H](N(C)C)[C@H]2O)[C@@H](CCOC)C[C@@H](C)C(=O)/C=C/C(C)=C/[C@@H]1CO[C@@H]1O[C@H](C)[C@@H](O)[C@@H](OC)[C@H]1OC |  | 0.5 (≈ 0.635 µM) |  | > 6.3 | 4 (≈ 5.08 µM) | 0.5 (≈ 0.635 µM) | 16 (≈ 20.3 µM) | 0.5 (≈ 0.635 µM) |
